In PubChem BioAssay AID1963971 (Molecular Pharmacology Branch, DTP, NCI, 2024):

System: 953936-095-R-J2-PDC spheroids with HUVEC/MSC, viability
Assay: Anticancer human tumor 953936-095-R-J2-PDC patient-derived cervical squamous cell carcinoma cell line growth inhibition [PI3K]
Conditions: for IC50: curve of first compound; for viability, T/C: stronger effect = lower value
Method in brief: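 Stroma-containing spheroids: tumor line, pooled-donor HUVEC, hMSC. Treatments: targeted agents with PI3K inhibitors. Dosing: clinically relevant, half-log spacing, 10 microM ceiling without known Cmax. Read-out: cell viability.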

[1] = second compound 0.0316 µM, first compound 0.0316 µM
[2] = second compound 0.0316 µM, first compound 0.1 µM
[3] = second compound 0.1 µM, first compound 0.0316 µM
[4] = second compound 0.1 µM, first compound 0.1 µM
[5] = second compound 0.316 µM, first compound 0.0316 µM
[6] = second compound 0.316 µM, first compound 0.1 µM
[7] = second compound 1 µM, first compound 0.0316 µM
[8] = second compound 1 µM, first compound 0.1 µM
[9] = second compound 3.16 µM, first compound 0.0316 µM
[10] = second compound 3.16 µM, first compound 0.1 µM
[11] = second compound 10 µM, first compound 0.0316 µM
[12] = second compound 10 µM, first compound 0.1 µM
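Note: spheroids exposed to compounds for seven days before read-out.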

## CC(C)n1nc(-c2ccc3oc(N)nc3c2)c2c(N)ncnc21 + CC(Nc1ncnc2nc[nH]c12)c1cc2cccc(Cl)c2c(=O)n1-c1ccccc1
Second compound 0.0316 µM
  IC50: 33.8 nM
Second compound 0.1 µM
  IC50: 29 nM
Second compound 0.316 µM
  IC50: 19.3 nM
Second compound 1 µM
  IC50: 30.7 nM
Second compound 3.16 µM
  IC50: 21.8 nM
Second compound 10 µM
  IC50: 11.3 nM
Second compound 0.0316 µM, first compound 0.000316 µM
  viability, T/C: 88.3%
Second compound 0.0316 µM, first compound 0.001 µM
  viability, T/C: 98.9%
Second compound 0.0316 µM, first compound 0.00316 µM
  viability, T/C: 93.9%
Second compound 0.0316 µM, first compound 0.01 µM
  viability, T/C: 73.9%
[1]
  viability, T/C: 53.7%
[2]
  viability, T/C: 18.2%
Second compound 0.1 µM, first compound 0.000316 µM
  viability, T/C: 101%
Second compound 0.1 µM, first compound 0.001 µM
  viability, T/C: 95%
Second compound 0.1 µM, first compound 0.00316 µM
  viability, T/C: 85.1%
Second compound 0.1 µM, first compound 0.01 µM
  viability, T/C: 77.1%
[3]
  viability, T/C: 46.3%
[4]
  viability, T/C: 16.5%
Second compound 0.316 µM, first compound 0.000316 µM
  viability, T/C: 112%
Second compound 0.316 µM, first compound 0.001 µM
  viability, T/C: 87.6%
Second compound 0.316 µM, first compound 0.00316 µM
  viability, T/C: 77.9%
Second compound 0.316 µM, first compound 0.01 µM
  viability, T/C: 66.9%
[5]
  viability, T/C: 46.8%
[6]
  viability, T/C: 17.2%
Second compound 1 µM, first compound 0.000316 µM
  viability, T/C: 95.1%
Second compound 1 µM, first compound 0.001 µM
  viability, T/C: 84.2%
Second compound 1 µM, first compound 0.00316 µM
  viability, T/C: 77.7%
Second compound 1 µM, first compound 0.01 µM
  viability, T/C: 65%
[7]
  viability, T/C: 56%
[8]
  viability, T/C: 15.9%
Second compound 3.16 µM, first compound 0.000316 µM
  viability, T/C: 73.3%
Second compound 3.16 µM, first compound 0.001 µM
  viability, T/C: 70.5%
Second compound 3.16 µM, first compound 0.00316 µM
  viability, T/C: 68.8%
Second compound 3.16 µM, first compound 0.01 µM
  viability, T/C: 68.8%
[9]
  viability, T/C: 41.1%
[10]
  viability, T/C: 14.6%
Second compound 10 µM, first compound 0.000316 µM
  viability, T/C: 57.7%
Second compound 10 µM, first compound 0.001 µM
  viability, T/C: 57.3%
Second compound 10 µM, first compound 0.00316 µM
  viability, T/C: 53.3%
Second compound 10 µM, first compound 0.01 µM
  viability, T/C: 52.8%
[11]
  viability, T/C: 29.9%
[12]
  viability, T/C: 12.8%

## Cn1nccc1Nc1nccc(-c2ccn(C(CO)c3ccc(Cl)c(F)c3)c(=O)c2)n1 (centres undefined) + CC(Nc1ncnc2nc[nH]c12)c1cc2cccc(Cl)c2c(=O)n1-c1ccccc1
Second compound 0.0316 µM
  IC50: > 10000 nM
Second compound 0.1 µM
  IC50: > 10000 nM
Second compound 0.316 µM
  IC50: > 10000 nM
Second compound 1 µM
  IC50: > 10000 nM
Second compound 3.16 µM
  IC50: > 10000 nM
Second compound 10 µM
  IC50: > 10000 nM
[1]
  viability, T/C: 90.7%
[2]
  viability, T/C: 100%
Second compound 0.0316 µM, first compound 0.316 µM
  viability, T/C: 92%
Second compound 0.0316 µM, first compound 1 µM
  viability, T/C: 102%
Second compound 0.0316 µM, first compound 3.16 µM
  viability, T/C: 88.3%
Second compound 0.0316 µM, first compound 10 µM
  viability, T/C: 80.1%
[3]
  viability, T/C: 94.3%
[4]
  viability, T/C: 90.6%
Second compound 0.1 µM, first compound 0.316 µM
  viability, T/C: 91%
Second compound 0.1 µM, first compound 1 µM
  viability, T/C: 90.8%
Second compound 0.1 µM, first compound 3.16 µM
  viability, T/C: 88%
Second compound 0.1 µM, first compound 10 µM
  viability, T/C: 66%
[5]
  viability, T/C: 98.2%
[6]
  viability, T/C: 97.2%
Second compound 0.316 µM, first compound 0.316 µM
  viability, T/C: 91.6%
Second compound 0.316 µM, first compound 1 µM
  viability, T/C: 83.8%
Second compound 0.316 µM, first compound 3.16 µM
  viability, T/C: 75.6%
Second compound 0.316 µM, first compound 10 µM
  viability, T/C: 73.6%
[7]
  viability, T/C: 102%
[8]
  viability, T/C: 76.9%
Second compound 1 µM, first compound 0.316 µM
  viability, T/C: 95.9%
Second compound 1 µM, first compound 1 µM
  viability, T/C: 86.1%
Second compound 1 µM, first compound 3.16 µM
  viability, T/C: 81.4%
Second compound 1 µM, first compound 10 µM
  viability, T/C: 82.4%
[9]
  viability, T/C: 74.6%
[10]
  viability, T/C: 69.9%
Second compound 3.16 µM, first compound 0.316 µM
  viability, T/C: 70.7%
Second compound 3.16 µM, first compound 1 µM
  viability, T/C: 76.4%
Second compound 3.16 µM, first compound 3.16 µM
  viability, T/C: 68.8%
Second compound 3.16 µM, first compound 10 µM
  viability, T/C: 77.3%
[11]
  viability, T/C: 53.7%
[12]
  viability, T/C: 52.3%
Second compound 10 µM, first compound 0.316 µM
  viability, T/C: 57.4%
Second compound 10 µM, first compound 1 µM
  viability, T/C: 51.6%
Second compound 10 µM, first compound 3.16 µM
  viability, T/C: 51.1%
Second compound 10 µM, first compound 10 µM
  viability, T/C: 56.9%
